Reference: a melting point compilation (Tetko et al.; mined from patent text by program, amines drawn as free bases though some values may be those of a salt)

Row | SMILES | melting point
1 | CCOC(=O)C1=C(C)NC(C)=C(C(=O)OCCSc2ccccc2)C1C (stereo unspecified) | 143 to 145 °C
2 | Cc1cccc2c1Cc1ccccc1OC(C(=O)O)O2 (stereo unspecified) | 61 °C
3 | O=C(CCCOc1ccc2nc3[nH]c(=O)[nH]c3cc2c1)NC1CCCCCC1 | 314 to 316 °C
4 | CN(C)CC1CCc2cc(OCc3ccc(NC(=O)c4cc5ccccc5s4)cc3)ccc2C1 (stereo unspecified) | 165 to 169 °C
5 | CCOCCCc1ccc(Oc2ccc3c(c2)C=C(C(=O)Nc2ccc(CN(C)C4CCOCC4)cc2)CCS3(=O)=O)cc1 | 156 to 157 °C
6 | CCOCc1nc2c(N)nc3ccccc3c2n1CCOCCNC(=O)NC1CCCCC1 | 161 to 164 °C
7 | CCCCCCCCc1ccc(OCC(=O)Cn2cc(C(=O)O)c3ccccc32)cc1 | 182 to 183 °C
8 | CSC(Nc1ccc2c(c1)OCO2)=C(C#N)C(=O)C(C)(C)C | 139 to 141 °C
9 | O=C(Cc1ccc(Cl)nc1)Nc1ccccn1 | 130 °C
10 | N#CNC(=S)Nc1ccccc1Cl | 253 to 255 °C
11 | CCCOc1ccc(CCC(=O)O)cc1-c1nc2c(C)cccc2c(=O)[nH]1 | 215 to 216 °C
12 | CCOC(=O)c1ccc(-c2cc3c(NCc4cccc(Cl)c4)ncnc3[nH]2)cc1 | 305 to 306 °C
13 | O=C(Cc1ccncc1)N1CCC(=C2c3ccc(Cl)cc3CCc3c(On4nnc5ccccc54)ccnc32)CC1 | 98.6 to 102 °C
14 | CCOC(=O)C(CO)NC(=O)C(CC(=O)O)NC(=O)CCNC(=O)c1ccc(C(=N)N)cc1 (stereo unspecified) | 201 to 203 °C
15 | CCCN(CCC)C(=O)c1cc(C)cc(C(=O)N[C@@H](Cc2cc(F)cc(F)c2)[C@@H](O)CCN)c1 | 61 to 72 °C
16 | CC(C)(C)N(Cc1ccccc1)CC(O)COc1cccc2c1CNC(=O)N2 (stereo unspecified) | 215 to 217 °C
17 | O=C(O)C(CCC1=CCCCC1)Oc1ccc(-c2ccc(Cl)s2)cc1 (stereo unspecified) | 136 to 138 °C
18 | CC(NC(=O)c1cc2ccccc2[nH]1)C(=O)O (racemic) | 240 °C

Row | SMILES | melting point
19 | CC(C)C(=O)OCC(COC(=O)C(C)C)OCn1cnc2c(=O)[nH]c(N)nc21 | 193 to 198 °C
20 | COc1ccc(CC2CCN(C(=O)NC(=O)c3ccc(O)cc3)CC2)cc1 | 190 °C
21 | CS(=O)(=O)c1ccc(-c2cnn(-c3ccc(F)c(F)c3)c(=O)c2Cc2cccc(F)c2)cc1 | 161 to 163 °C
22 | O=C(Oc1c(F)c(F)c(F)c(F)c1F)c1ccc(F)c(F)c1Nc1ccc(I)cc1Cl | 108 to 110 °C
23 | NC(=O)C1(CCCN2CCCCC2)CC=CCC1c1ccccc1 (stereo unspecified) | 121 to 122 °C
24 | CO[C@@H]1CN(c2ccc3c(=O)c(C=O)cn(-c4nccs4)c3n2)C[C@H]1NCC(=O)OC(C)(C)C (relative stereo) | 130 to 132 °C
25 | Cc1cc(OC[C@@H]2CCC(=O)N2)cc(C)c1-c1cccc2c1OC[C@H]2Nc1ccc2c(c1)OC[C@H]2CC(=O)O | 161 °C
26 | CC(C)c1ccc(NC(=O)OC(C)(C)C)c(NC(=O)CC(=O)c2ccnc(C#N)c2)c1 | 163 to 165 °C
27 | COc1cc(Cl)c(N)cc1C(=O)N[C@H]1CCNC[C@H]1OC (relative stereo) | 192 °C
28 | COC(=O)NC(=O)CC1=C(Cc2ccc3c(Br)cccc3c2)C(=O)CCC1 | 128 to 129 °C
29 | CNC(=O)c1ccc(N2CCN(Cc3cnc4c(c3)[nH]c(=O)n3cccc43)CC2)c(F)c1 | 288 to 294 °C
30 | COc1ccc(-c2cc(-c3ccccc3)[nH]c2C(=O)NCc2ccc(C(=O)NCCS)cc2)cc1 | 131 to 132 °C
31 | Cc1cccc(COc2ccc(CC(NC(=O)c3cn4ccc(-c5ccc(Cl)cc5)cc4n3)C(=O)O)cc2)c1 (stereo unspecified) | 245 to 246 °C
32 | O=C(ON1C(=O)CCC1=O)c1ccccn1 | 174 to 175 °C
33 | Cc1cc(O)c(CC(=O)OCCC(C)C)cc1O | 99 °C
34 | CCCCCCCCCCCCNC(=O)COc1ccc(O)cc1NCC(=O)O | 122 to 125 °C
35 | Cc1nc2scc(C)n2c(=O)c1CCN1CCC(c2noc3cc(F)ccc23)CC1 | 231 °C
36 | C#Cc1ccc(C(=O)c2ccc3n2CCC3C(=O)OC)cc1 (stereo unspecified) | 113 to 114 °C
